In patent US11839689B2, “Formulations of enzalutamide” (Astellas Pharma Inc., priority 2012, dated 2023):

Legend:
Format in all cases: physicochemical
[1] = Microcentrifuge dissolution test in Model Fasted Duodenal Solution; details: for Enzalutamide Concentration, 0 min / Enzalutamide Concentration, 4 min / Enzalutamide Concentration, 10 min / Enzalutamide Concentration, 20 min / Enzalutamide Concentration, 40 min / Enzalutamide Concentration, 90 min / Enzalutamide Concentration, 1200 min: MFDS pH 6.5; for Enzalutamide Concentration, 0 min / Enzalutamide Concentration, 4 min / Enzalutamide Concentration, 10 min / Enzalutamide Concentration, 20 min / Enzalutamide Concentration, 40 min / Enzalutamide Concentration, 90 min / Enzalutamide Concentration, 1200 min / AUC90 (area under the curve at 90 minutes) / Cmax, 90 (maximum drug concentration through 90 minutes): dose 200 μg/ml; for AUC90 (area under the curve at 90 minutes) / Cmax, 90 (maximum drug concentration through 90 minutes): Table 4.2, MFDS
Excerpt: The in vitro dissolution test to evaluate enhanced drug concentration in aqueous solution can be conducted by (1) adding with agitation a sufficient quantity of control composition, that is, the crystalline enzalutamide alone, to the in vitro test medium, typically MFD or PBS solution, to determine the maximum concentration of the enzalutamide achieved under the conditions of the test; (2) adding with agitation a sufficient quantity of test composition (e.g., the enzalutamide and polymer) in an equivalent test medium, such that if all the enzalutamide dissolved, the theoretical concentration of enzalutamide would exceed the observed maximum concentration of enzalutamide by a factor of about 20; and (3) comparing the measured MDC and/or aqueous concentration versus time AUC90 of the test composition in the test medium with the maximum concentration, and/or the aqueous concentration versus time AUC90 of the control composition. In conducting such a dissolution test, the amount of test composition or control composition used is an amount such that if all of the enzalutamide dissolved, the test enzalutamide concentration would be at least about 20-fold that of the control enzalutamide concentration.
The concentration of dissolved enzalutamide is typically measured as a function of time by sampling the test medium and plotting enzalutamide concentration in the test medium vs. time so that the MDC can be ascertained. The MDC is taken to be the maximum value of dissolved enzalutamide measured over the duration of the test. The enzalutamide concentration versus time AUC90 is calculated by integrating the concentration versus time curve over any 90-minute time period between the time of introduction of the composition into the aqueous use environment (time equals zero) and 270 minutes following introduction to the use environment (time equals 270 minutes). Typically, when the composition reaches its MDC rapidly, in less than about 30 minutes, the time interval used to calculate AUC90 is from time equals zero to time equals 90 minutes. However, if the AUC90 over any 90-minute time period described above of a composition meets the criteria of compositions described herein, then the composition is included in compositions of this disclosure. The time period 270 min is chosen because of its physiological relevance. Drug absorption in mammals generally occurs in the small intestine, and the small intestinal transit time in humans is approximately 4.5 hr, or 270 min.
To avoid large enzalutamide particulates which would give an erroneous determination, the test solution is either filtered or centrifuged. “Dissolved enzalutamide” is typically taken as that material that either passes a 0.45 micron syringe filter or, alternatively, the material that remains in the supernatant following centrifugation. Filtration can be conducted using a 13 mm, 0.45 micron polyvinylidine difluoride syringe filter, such as the filter sold by Scientific Resources under the trademark TITAN′. Centrifugation is typically carried out in a polypropylene microcentrifuge tube by centrifuging at 13,000 G for 60 seconds. Other similar filtration or centrifugation methods can be employed and useful results obtained. For example, using other types of microfilters may yield values somewhat higher or lower (+/−10-40%) than that obtained with the filter specified above but will still allow identification of dispersions. It is recognized that this definition of “dissolved enzalutamide” encompasses not only monomeric solvated enzalutamide molecules but also a wide range of species such as polymer/enzalutamide assemblies that have submicron dimensions such as enzalutamide aggregates, aggregates of mixtures of polymer and enzalutamide, micelles, polymeric micelles, colloidal particles, polymer/enzalutamide complexes, and other such enzalutamide-containing species that are present in the filtrate or supernatant in the specified dissolution test. […]

[2] = Glass transition temperature by modulated DSC as a function of relative humidity
Procedure: Below Tg, an amorphous material is said to be in a “glassy” state in which molecular mobility is severely restricted. […] Glass transition temperatures Tg were determined for amorphous enzalutamide, and for spray-dried dispersions (SDDs) of enzalutamide with HPMCAS-M or PVP-VA64, at <5% and 75% relative humidity (RH). Tgs were determined by modulated differential scanning calorimetry (mDSC), utilizing the following protocol. Samples (about 5 mg) were equilibrated at the desired RH overnight in an environmental chamber at ambient temperature. The samples were then loaded into pans and sealed inside the environmental chamber. The samples were analyzed on a Q1000 mDSC (TA Instruments, New Castle, Delaware). Samples were typically scanned over the temperature range of −40° C. to 180° C., at a scan rate of 2.5° C./min, and a modulation rate of ±1.5° C./min. The data sampling interval was 0.20 sec/point. The Tg was calculated based on half height.

[3] = SEM particle morphology before and after 1 day at 50° C./75% RH; details: after 1 day exposure to 50° C./75% RH
Procedure: Scanning electron micrographs (SEMs) were obtained for samples before and after 1 day exposure to a 50° C./75% RH environment. After exposure of these samples to this challenging storage environment, no crystals were seen, indicative of the ability of these samples to maintain the amorphous character of enzalutamide. […] Thus these three embodiments would require controlled storage conditions to maintain their efficacy.

[4] = Microcentrifuge dissolution test after suspension in 0.5% methylcellulose for 2 hours
Procedure: Drugs and drug formulations are sometimes dosed as aqueous suspensions, particularly for pediatric patients. The ability of various enzalutamide SDDs to retain their ability to maintain drug supersaturation in vitro was assessed by using the microcentrifuge dissolution test to measure drug dissolution after suspension in 0.5% methylcellulose in water for 2 hours. Methylcellulose is a standard viscosifying suspending agent which is used to maintain drug particles in suspension in oral suspension dosage forms. The table below presents in vitro dissolution performance before and after suspension in 0.5% methylcellulose.

[5] = Membrane-permeation (MP) dissolution test
Procedure: The membrane permeability test described in the Examples below is carried out as follows. A drug-permeable membrane is placed between feed and permeate reservoirs. A sufficient quantity of test composition is added to a feed test medium and placed in the feed reservoir, while a water immiscible organic solution, such as a 60/40 mixture of decanol/decane, is placed in the permeate reservoir. Samples are removed from the permeate reservoir and analyzed for the concentration of drug as a function of time. […] Further details of this membrane permeation test are disclosed in U.S. Pat. No. 7,611,630 B2.
The MP-dissolution test, whose details are described above, measures a capability of low solubility drug formulations which is not measured in the microcentrifuge dissolution test utilized in Examples 4 and 7. This test mimics an aspect of the in vivo situation in the GI tract. In the in vivo situation, it is generally accepted that free drug in solution (i.e. individual drug molecules dissolved in the GI medium without association with formulation components) is the species which is absorbed across the gastrointestinal wall into the bloodstream. As free drug is absorbed, the formulation must be capable of supplying more free drug for absorption. The membrane permeation test measures the amount of drug which crosses a polymeric membrane (as a model of the GI wall) over time, and thus reflects the ability of the formulation to resupply free drug in solution to be further passively transported across the polymeric membrane. In Table 8.1 below, Maximum Flux is the maximum observed rate of permeation across the polymeric membrane, based on the slope of the absorption curve over any period within the 240 minute duration of the experiment, normalized for membrane area. Total drug recovery is the % of the initial drug dose which has crossed the membrane when the test ended at 240 minutes.
The membrane permeation test was carried out for 60% A enzalutamide SDDs with HPMCAS-M, HPMC E3 Prem, HPMCP-55, and Eudragit-L100, as described in Example 8.

[6] = 0 hr, before suspension in aqueous 0.5% methylcellulose
[7] = 2 hr, after suspension for 2 hr in aqueous 0.5% methylcellulose
[8] = Table 8.1, within 240 minutes, normalized for membrane area

CNC(=O)c1ccc(N2C(=S)N(c3ccc(C#N)c(C(F)(F)F)c3)C(=O)C2(C)C)cc1F [Amorphous (spray-dried) enzalutamide - BREC-0035-09B(V)]
Enzalutamide Concentration, 0 min ([1]; 0 min): 0.0 µg/mL
Enzalutamide Concentration, 4 min ([1]; 4 min): 61 µg/mL
Enzalutamide Concentration, 10 min ([1]; 10 min): 100 µg/mL
Enzalutamide Concentration, 20 min ([1]; 20 min): 100 µg/mL
Enzalutamide Concentration, 40 min ([1]; 40 min): 110 µg/mL
Enzalutamide Concentration, 90 min ([1]; 90 min): 120 µg/mL
Enzalutamide Concentration, 1200 min ([1]; 1200 min): 30 µg/mL
AUC90 (area under the curve at 90 minutes) [1]: 9,500 min*μg/mL
Cmax, 90 (maximum drug concentration through 90 minutes) [1]: 120 µg/mL
Tg ([2]; 75% RH): 64.0 °C
Tg ([2]; <5% RH): 88.5 °C
fusion of particles to larger particles by SEM after storage challenge [3]: fusion of particles to form larger particles
AUC90 [4, 6]: 8,900 min · mcg/ml
Cmax 90 [4, 6]: 110 µg/mL
AUC90 [4, 7]: 8,800 min · mcg/ml
Cmax 90 [4, 7]: 100 µg/mL
Maximum Flux [5, 8]: 1.3 μg/cm^2 × min

CNC(=O)c1ccc(N2C(=S)N(c3ccc(C#N)c(C(F)(F)F)c3)C(=O)C2(C)C)cc1F [Crystalline enzalutamide (Control 1)]
Enzalutamide Concentration, 0 min ([1]; 0 min): 0.0 µg/mL
Enzalutamide Concentration, 4 min ([1]; 4 min): 1 µg/mL
Enzalutamide Concentration, 10 min ([1]; 10 min): 3 µg/mL
Enzalutamide Concentration, 20 min ([1]; 20 min): 5 µg/mL
Enzalutamide Concentration, 40 min ([1]; 40 min): 6 µg/mL
Enzalutamide Concentration, 90 min ([1]; 90 min): 7 µg/mL
Enzalutamide Concentration, 1200 min ([1]; 1200 min): 9 µg/mL
AUC90 (area under the curve at 90 minutes) [1]: 500 µg·min/mL
Cmax, 90 (maximum drug concentration through 90 minutes) [1]: 7 µg/mL
In vitro dissolution, Average, 0 min ([1]; Table 9.1, 0 min): 0.32 µg/mL
In vitro dissolution, Average, 4 min ([1]; Table 9.1, 4 min): 5.23 µg/mL
In vitro dissolution, Average, 10 min ([1]; Table 9.1, 10 min): 8.04 µg/mL
In vitro dissolution, Average, 20 min ([1]; Table 9.1, 20 min): 7.69 µg/mL
In vitro dissolution, Average, 40 min ([1]; Table 9.1, 40 min): 8.65 µg/mL
In vitro dissolution, Average, 90 min ([1]; Table 9.1, 90 min): 9.14 µg/mL
In vitro dissolution, Average, 1200 min ([1]; Table 9.1, 1200 min): 12.12 µg/mL
AUC90 min ([1]; Table 9.2): 740 µg·min/mL
Cmax, 90 min ([1]; Table 9.2): 10 µg/mL
Maximum Flux [5, 8]: 0.4 μg/cm^2 × min
Maximum Flux ([5]; Table 9.3): 0.4 μg/cm^2-min
